Target: T1, met (HGF receptor) in human gastric cancer cells MKN45 (Homo sapiens, UniProt P08581)
T1 construct: endogenous in cells; host or cells: MKN45 human gastric cancer cells
Assay: Inhibitory activity against met-autophosphorylation using ELISA method (2), MKN45 cells, HGF-independent
Assay type: cell-based
How it was run: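 MKN45 cells, 3×10^4 per well in RPMI with 0.1% FCS overnight, were exposed to compound in DMSO for 1 h at 37 °C without HGF. Lysates were captured on anti-phosphotyrosine (PY20) plates, Met detected with anti-Met and peroxidase secondary antibody, absorbance at 450 nm.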

T1 sequence (P08581 25-1390): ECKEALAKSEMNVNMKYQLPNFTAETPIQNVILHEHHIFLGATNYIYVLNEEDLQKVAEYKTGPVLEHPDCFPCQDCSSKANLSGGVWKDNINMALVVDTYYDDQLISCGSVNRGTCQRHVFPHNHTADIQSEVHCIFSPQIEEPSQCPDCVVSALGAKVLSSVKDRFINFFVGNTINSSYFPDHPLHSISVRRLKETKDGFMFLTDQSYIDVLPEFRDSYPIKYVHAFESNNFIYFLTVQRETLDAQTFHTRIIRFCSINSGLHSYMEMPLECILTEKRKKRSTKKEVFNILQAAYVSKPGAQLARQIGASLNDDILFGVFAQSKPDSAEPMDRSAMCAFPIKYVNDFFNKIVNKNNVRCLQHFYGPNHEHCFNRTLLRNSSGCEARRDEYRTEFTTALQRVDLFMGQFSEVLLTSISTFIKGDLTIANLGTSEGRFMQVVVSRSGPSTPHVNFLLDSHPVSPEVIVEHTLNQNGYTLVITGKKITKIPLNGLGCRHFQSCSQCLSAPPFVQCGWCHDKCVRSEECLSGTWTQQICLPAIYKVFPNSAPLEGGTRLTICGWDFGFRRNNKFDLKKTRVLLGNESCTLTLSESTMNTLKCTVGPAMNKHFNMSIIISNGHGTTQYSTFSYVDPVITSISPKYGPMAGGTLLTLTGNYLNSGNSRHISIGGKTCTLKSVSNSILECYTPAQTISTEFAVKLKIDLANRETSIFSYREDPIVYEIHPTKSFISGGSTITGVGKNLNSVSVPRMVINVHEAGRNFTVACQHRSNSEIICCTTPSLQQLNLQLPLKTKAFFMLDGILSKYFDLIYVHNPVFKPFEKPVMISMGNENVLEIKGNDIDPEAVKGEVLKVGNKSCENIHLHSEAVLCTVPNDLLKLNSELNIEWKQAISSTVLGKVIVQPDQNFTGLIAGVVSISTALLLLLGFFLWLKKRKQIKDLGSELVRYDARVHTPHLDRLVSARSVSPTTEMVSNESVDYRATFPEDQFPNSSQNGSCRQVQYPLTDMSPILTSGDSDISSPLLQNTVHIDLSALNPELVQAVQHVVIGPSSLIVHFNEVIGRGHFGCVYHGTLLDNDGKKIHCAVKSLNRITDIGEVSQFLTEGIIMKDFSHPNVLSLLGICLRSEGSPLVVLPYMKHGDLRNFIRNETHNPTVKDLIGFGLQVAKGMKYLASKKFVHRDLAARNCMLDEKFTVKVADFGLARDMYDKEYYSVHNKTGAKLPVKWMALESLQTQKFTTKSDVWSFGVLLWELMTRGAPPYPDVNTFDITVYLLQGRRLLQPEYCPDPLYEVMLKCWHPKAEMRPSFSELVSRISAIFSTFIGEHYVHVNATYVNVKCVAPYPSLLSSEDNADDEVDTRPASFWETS

| Structure (SMILES) | IC50 [nM] |
| --- | --- |
| COc1cc2nccc(Oc3ccc(NC(=O)NC(=O)Nc4cccc(C(C)=O)c4)cc3)c2cc1OC [Example 261, N-(3-acetylphenyl)-({[4-(6,7-dimethoxy-quinolin-4-yloxy)anilino]carbonyl}amino)-methanamide] | 343 |
| COc1cc2nccc(Oc3ccc(NC(=O)NC(=O)Nc4cccc5ncccc45)cc3)c2cc1OC [Example 262, N-(5-quinolyl)-({[4-(6,7-dimethoxyquinolin-4-yloxy)anilino]carbonyl}amino)methanamide] | 269 |
| COc1cc2nccc(Oc3ccc(NC(=O)NC(=O)Nc4ccc(F)c(F)c4)cc3)c2cc1OC [Example 264, N-(3,4-difluorophenyl)-({[4-(6,7-dimethoxy-quinolin-4-yloxy)anilino]carbonyl}amino)methanamide] | 347 |
| COc1cc2nccc(Oc3ccc(NC(=O)NC(=O)Nc4c(F)cccc4F)cc3)c2cc1OC [Example 265, N-(2,6-difluorophenyl)-({[4-(6,7-dimethoxy-quinolin-4-yloxy)anilino]carbonyl}amino)methanamide] | 259 |
| COc1cc2nccc(Oc3ccc(NC(=O)NC(=O)Nc4ccccc4CCO)cc3)c2cc1OC [Example 267, N-[2-(2-hydroxyethyl)phenyl]-({[4-(6,7-dimethoxyquinolin-4-yloxy)anilino]carbonyl}amino)-methanamide] | 109 |
| COc1cc2c(Oc3ccc(NC(=O)CC(=O)Nc4ccc(F)cc4)cc3F)ccnc2cc1OCCCN1CCOCC1 [Example 269, N-{3-fluoro-4-[6-methoxy-7-(3-morpholin-4-yl-propoxy)quinolin-4-yloxy]phenyl}-N′-(4-fluorophenyl)-malonamide] | 12.5 |
| COc1cc2c(Oc3ccc(NC(=S)NC(=O)Cc4ccccc4)cc3F)ccnc2cc1OCCN1CCCN(C)CC1 [Example 273, 1-(3-Fluoro-4-{6-methoxy-7-[2-(4-methyl-[1,4]diazepan-1-yl)-ethoxy]-3-quinolin-4-yloxy}-phenyl)-3-phenylacetyl-thiourea] | 24 |
| CCN(CC)CCOc1cc2nccc(Oc3ccc(NC(=S)NC(=O)Cc4ccc(F)cc4)cc3F)c2cc1OC [Example 275, 1-{4-[7-(2-Diethylamino-ethoxy)-6-methoxy-quinolin-4-yloxy]-3-fluoro-phenyl}-3-[2-(4-fluoro-phenyl)-acetyl]-thiourea] | 23 |
| COc1cc2c(Oc3ccc(NC(=S)NC(=O)Cc4cccc(F)c4)cc3F)ccnc2cc1OCCN1CCOCC1 [Example 279, 1-{3-Fluoro-4-[6-methoxy-7-(2-morpholin-4-yl-ethoxy)-quinolin-4-yloxy]-phenyl}-3-[2-(3-fluoro-phenyl)-acetyl]-thiourea] | 20.4 |
| COc1cc2c(Oc3ccc(NC(=O)NC(=O)Cc4ccccc4)cc3F)ccnc2cc1OCCN1CCC(CO)CC1 [Example 283] | 14.6 |
| COc1cc2c(Oc3ccc(NC(=S)NC(=O)Cc4cccc(F)c4)cc3F)ccnc2cc1OCCCN1CCOCC1 [Example 289] | 23.8 |
| CCN(CC)CCCOc1cc2nccc(Oc3ccc(NC(=O)NC(=O)Cc4ccccc4)cc3F)c2cc1OC [Example 291, 1-{4-[7-(3-Diethylamino-propoxy)-6-methoxy-quinolin-4-yloxy]-3-fluoro-phenyl}-3-phenylacetyl-urea] | 19.5 |
| COc1cc2c(Oc3ccc(NC(=O)NC(=O)Cc4ccccc4F)cc3F)ccnc2cc1OCCCN1CCCC1 [Example 294, 1-{3-Fluoro-4-[6-methoxy-7-(3-pyrrolidin-1-yl-propoxy)-quinolin-4-yloxy]-phenyl}-3-[2-(2-fluoro-phenyl)-acetyl]-urea] | 23 |
| COc1cc2c(Oc3ccc(NC(=S)NC(=O)Cc4ccc(C)cc4)cc3F)ccnc2cc1OCCCN1CCOCC1 [Example 304, 1-{3-Fluoro-4-[6-methoxy-7-(3-morpholin-4-yl-propoxy)-quinolin-4-yloxy]-phenyl}-3-(2-p-toluyl-acetyl)-thiourea] | 65.9 |
| COc1cc2c(Oc3ccc(NC(=O)NC(=O)Cc4ccccc4)cc3F)ccnc2cc1OCCCN1CCC(CO)CC1 [Example 308, 1-(3-Fluoro-4-{7-[3-(4-hydroxymethyl-piperidin-1-yl)-propoxy]-6-methoxy-quinolin-4-yloxy}-phenyl)-3-phenylacetyl-urea] | 21.4 |
| COc1cc2c(Oc3ccc(NC(=S)NC(=O)Cc4ccccc4)cc3F)ccnc2cc1OCCCN1CCC(CO)CC1 [Example 309, 1-(3-Fluoro-4-{7-[3-(4-hydroxymethyl-piperidin-1-yl)-propoxy]-6-methoxy-quinolin-4-yloxy}-phenyl)-3-phenylacetyl-thiourea] | 20.1 |
| COc1cc2c(Oc3ccc(NC(=S)NC(=O)Cc4ccc(F)cc4)cc3F)ccnc2cc1OCCCN1CCC(CO)CC1 [Example 310, 1-(3-Fluoro-4-{7-[3-(4-hydroxymethyl-piperidin-1-yl)-propoxy]-6-methoxy-quinolin-4-yloxy}-phenyl)-3-[2-(4-fluoro-phenyl)-acetyl]-thiourea] | 21.1 |

Further compounds by falling IC50, results first:

| IC50 [nM] | Structure (SMILES) |
| --- | --- |
| 483 | COc1cc2nccc(Oc3ccc(NC(=O)NC(=O)Nc4c(Cl)cccc4Cl)cc3)c2cc1OC [Example 263, N-(2,6-dichlorophenyl)-({[4-(6,7-dimethoxy-quinolin-4-yloxy)anilino]carbonyl}amino)methanamide] |
| 181 | COc1ccccc1NC(=O)NC(=O)Nc1ccc(Oc2ccnc3cc(OC)c(OC)cc23)cc1 [Example 266, N-(2-methoxyphenyl)-({[4-(6,7-dimethoxy-quinolin-4-yloxy)anilino]carbonyl}amino)methanamide] |
| 89 | COc1cc2c(Oc3ccc(NC(=S)NC(=O)Cc4ccccc4F)cc3Cl)ccnc2cc1OCCCN1CCOCC1 [Example 298, 1-{3-Chloro-4-[6-methoxy-7-(3-morpholin-4-yl-propoxy)-quinolin-4-yloxy]-phenyl}-3-[2-(2-fluoro-phenyl)-acetyl]-thiourea] |
| 57.4 | COc1cc2c(Oc3ccc(NC(=S)NC(=O)Cc4ccccc4)cc3F)ccnc2cc1OCCCn1ccnc1 [Example 307, 1-{3-Fluoro-4-[7-(3-imidazol-1-yl-propoxy)-6-methoxy-quinolin-4-yloxy]-phenyl}-3-phenylacetyl-thiourea] |
| 33.9 | COc1cc2c(Oc3ccc(NC(=O)NC(=O)Cc4ccccc4F)cc3F)ccnc2cc1OCCCn1ccnc1 [Example 306, 1-{3-Fluoro-4-[7-(3-imidazol-1-yl-propoxy)-6-methoxy-quinolin-4-yloxy]-phenyl}-3-[2-(2-fluoro-phenyl)-acetyl]-urea] |
| 33.6 | CCN(CC)CCOc1cc2nccc(Oc3ccc(NC(=S)NC(=O)Cc4ccccc4)cc3F)c2cc1OC [Example 272, 1-{4-[7-(2-Diethylamine-ethoxy)-6-methoxy-quinolin-4-yloxy]-3-fluoro-phenyl}-3-phenylacetyl-thiourea] |
| 26.7 | COc1cc2c(Oc3ccc(NC(=S)NC(=O)Cc4ccccc4)cc3F)ccnc2cc1OCCN1CCN(C)CC1 [Example 270, 1-(3-Fluoro-4-{6-methoxy-7-[2-(4-methyl-piperazin-1-yl)-ethoxy]-quinolin-4-yloxy}-phenyl)-3-phenylacetyl-thiourea] |
| 25.1 | COc1cc2c(Oc3ccc(NC(=S)NC(=O)Cc4ccccc4F)cc3F)ccnc2cc1OCCN1CCOCC1 [Example 278, 1-{3-Fluoro-4-[6-methoxy-7-(2-morpholin-4-yl-ethoxy)-quinolin-4-yloxy]-phenyl}-3-[2-(2-fluoro-phenyl)-acetyl]-thiourea] |
| 24.1 | COc1cc2c(Oc3ccc(NC(=O)NC(=O)Cc4ccccc4F)cc3F)ccnc2cc1OCCCN1CCCCC1 [Example 295, 1-{3-Fluoro-4-[6-methoxy-7-(3-piperidin-1-yl-propoxy)-quinolin-4-yloxy]-phenyl}-3-[2-(2-fluoro-phenyl)-acetyl]-urea] |
| 22.5 | COc1cc2c(Oc3ccc(NC(=O)NC(=O)Cc4ccccc4)c(F)c3)ccnc2cc1OCCCN1CCOCC1 [Example 287] |
| 22.4 | COc1cc2c(Oc3ccc(NC(=S)NC(=O)Cc4ccccc4)cc3Cl)ccnc2cc1OCCCN1CCOCC1 [Example 300, 1-{3-Chloro-4-[6-methoxy-7-(3-morpholin-4-yl-propoxy)-quinolin-4-yloxy]-phenyl}-3-phenylacetyl-thiourea] |
| 21.4 | COc1cc2c(Oc3ccc(NC(=O)NC(=O)Cc4ccccc4)cc3F)ccnc2cc1OCCCn1ccnc1 [Example 305, 1-{3-Fluoro-4-[7-(3-imidazol-1-yl-propoxy)-6-methoxy-quinolin-4-yloxy]-phenyl}-3-phenylacetyl-urea] |
| 21.1 | CCN(CC)CCCOc1cc2nccc(Oc3ccc(NC(=O)NC(=O)Cc4ccccc4F)cc3F)c2cc1OC [Example 293, 1-{4-[7-(3-Diethylamino-propoxy)-6-methoxy-quinolin-4-yloxy]-3-fluoro-phenyl}-3-[2-(2-fluoro-phenyl)-acetyl]-urea] |
| 20.3 | COc1cc2c(Oc3ccc(NC(=O)NC(=O)Cc4ccccc4)cc3F)ccnc2cc1OCCCN1CCCC1 [Example 292, 1-{3-Fluoro-4-[6-methoxy-7-(3-pyrrolidin-1-yl-propoxy)-quinolin-4-yloxy]-phenyl}-3-phenylacetyl-urea] |
| 19.7 | COc1cc2c(Oc3ccc(NC(=O)NC(=O)Cc4ccccc4F)cc3F)ccnc2cc1OCCCN1CCN(C)CC1 [Example 296, 1-(3-Fluoro-4-{6-methoxy-7-[3-(4-methyl-piperazin-1-yl)-propoxy]-quinolin-4-yloxy}-phenyl)-3-[2-(2-fluoro-phenyl)-acetyl]-urea] |
| 19 | COc1cc2c(Oc3ccc(NC(=S)NC(=O)Cc4ccccc4)cc3F)ccnc2cc1OCCN1CCOCC1 [Example 276] |
| 15 | COc1cc2c(Oc3ccc(NC(=S)NC(=O)Cc4ccccc4)cc3F)ccnc2cc1OCCN1CCC(CO)CC1 [Example 284, 1-(3-Fluoro-4-{7-[2-(4-hydroxymethyl-piperidin-1-yl)-ethoxy]-6-methoxy-quinolin-4-yloxy}-phenyl)-3-phenylacetyl-thiourea] |

Reference: US8324245B2, “Quinoline derivative and quinazoline derivative inhibiting self-phosphorylation of hepatocytus proliferator receptor, and medicinal composition containing the same” (Kyowa Hakko Kirin Co., Ltd., priority 2001, dated 2012)
